Holding throughout (format): cell-based
Assay [1] concerns human colon cancer cell line (HCT-116). Description: MTT anti-proliferative assay, HCT-116 (Examples 3-12). Background: Tetrazolium assays rely on reduction of a dye to a coloured formazan, in cell work by metabolically active cells.
Assay [2] has as its system human colorectal adenocarcinoma cells (DLD-1). Description: MTT anti-proliferative assay, DLD-1 (Examples 3-12). To be noted: for % stim. / Mean OD (570 nm) / inhibition at 200 µg/mL / % inhibition: 200 μg/ml; for % stim. / Mean OD (570 nm) / % inhibition: 48 hours.
Assay [3] deals with human oesophageal squamous cell carcinoma cell line (KYSE-30). In words: MTT anti-proliferative assay, KYSE-30 (Examples 3-13).
The subject of assay [4] is human gastric carcinoma cell line (NCI-N87). In words: MTT anti-proliferative assay, NCI-N87 (Examples 3-12). To be noted: for % stim. / Mean OD (570 nm) / inhibition at 200 µg/mL / % inhibition: 200 μg/ml; for % stim. / Mean OD (570 nm) / % inhibition: 48 hours.
For assay [5], the system named is human oesophageal squamous cell carcinoma cell line (KYSE-30). Description: MTT anti-proliferative assay, KYSE-30 (Examples 3-13). The source holds these as a separate data set.
Setting [6] is: Homo sapiens, HCT-116, 48 h, 200 μg/ml.
[7] abbreviates: Examples 3-12, 200 μg/ml, 48 hours.
The mark [8] stands for this setting: Homo sapiens, KYSE-30, 48 h, Examples 3-12, 200 μg/ml, 48 hours.

The structures appear in SMILES notation.

As usually defined, the inhibition is the change of the read-out against control, counted positive when it falls. Low values mean little suppression, high ones strong suppression. A word on the % inhibition: it is the percentage by which the read-out fell short of the control. The low end stands for little suppression, the high end for strong suppression. In the case of `O=C1C[C@@H](c2ccccc2)Oc2cc(O)cc(O)c21` [Pinocembrin, reference compound], the “% stim.” value is 0% in assay [1] (200 μg/ml, 48 hours); 0% in assay [2]; 0% in assay [4]; 0% in assay [5] (setting [7]). In addition, the “Mean OD (570 nm)” value in assay [1] (200 μg/ml, 48 hours) was determined as 0.0045; in assay [2], 0.0341; in assay [3] (Example 13, 100 μg/ml) it was 0.1668; in assay [4] it was 0.1214; in assay [5] (setting [7]), 0.0225. The inhibition at 200 µg/mL in assay [1] (setting [6]) stood at 99.1%; in assay [2] (Homo sapiens, DLD-1, 48 h), 91.7%; in assay [4] (Homo sapiens, NCI-N87, 48 h), 72.5%; in assay [5] (setting [8]), 96.3%. Also, the “% inhibition” value in assay [3] (Example 13, 100 μg/ml) is given as 50.26%. In assay [3] (Homo sapiens, KYSE-30, Example 13, 100 μg/ml), this compound gave an inhibition at 100 µg/mL of 50.3%.
As to `O=c1[nH]cc(F)c(=O)[nH]1` [Sample 5-FU, 5-fluorouracil, reference compound], the inhibition at 0.195 µg/mL in assay [1] (Homo sapiens, HCT-116, 48 h, 0.195 μg/ml) came to 33.9%; in assay [2] (Homo sapiens, DLD-1, 48 h, 0.195 μg/ml) it was 26.5%; in assay [4] (Homo sapiens, NCI-N87, 48 h, 0.195 μg/ml), 7.52%; in assay [5] (Homo sapiens, KYSE-30, 48 h, Examples 3-12, 0.195 μg/ml, 48 hours) it was 23.8%; in assay [5] (Homo sapiens, KYSE-30, Example 13, 0.195 μg/ml), 3.41%. For the same compound, the inhibition at 0.65 µg/mL in assay [1] (Homo sapiens, HCT-116, 48 h, 0.65 μg/ml) was found to be 54%; in assay [2] (Homo sapiens, DLD-1, 48 h, 0.65 μg/ml), 37.3%; in assay [3] (Homo sapiens, KYSE-30, 48 h, Examples 3-12, 0.65 μg/ml, 48 hours) it was 39.4%; in assay [4] (Homo sapiens, NCI-N87, 48 h, 0.65 μg/ml), 17.2%; in assay [5] (Homo sapiens, KYSE-30, Example 13, 0.65 μg/ml), 16.6%. Also, the inhibition at 1.95 µg/mL came out at 57.3% in assay [1] (Homo sapiens, HCT-116, 48 h, 1.95 μg/ml); 41.6% in assay [2] (Homo sapiens, DLD-1, 48 h, 1.95 μg/ml); 47.5% in assay [3] (Homo sapiens, KYSE-30, 48 h, Examples 3-12, 1.95 μg/ml, 48 hours); 16.2% in assay [4] (Homo sapiens, NCI-N87, 48 h, 1.95 μg/ml); 31.5% in assay [5] (Homo sapiens, KYSE-30, Example 13, 1.95 μg/ml).
Regarding `COc1cc(O)c2c(=O)cc(-c3ccccc3)oc2c1` [Tectochrysin, tectochrysin], the “% inhibition” value in assay [1] (200 μg/ml, 48 hours) was found to be 90.1%; in assay [2], 92.8%; in assay [4], 54.0%; in assay [5] (setting [7]), 87.6%.
Regarding `O=C(O)/C=C/c1ccc(O)cc1` [p-coumaric acid, para-coumaric acid, reference compound], the “% stim.” value turned out to be 2.6% in assay [1] (200 μg/ml, 48 hours); 0% in assay [2]; 0% in assay [4]; 0% in assay [5] (setting [7]). Moreover, the “Mean OD (570 nm)” value in assay [1] (200 μg/ml, 48 hours) is given as 0.5216; in assay [2], 0.3531; in assay [4], 0.3652; in assay [5] (setting [7]), 0.3243. Also, the inhibition at 200 µg/mL in assay [1] (setting [6]) is 0%; in assay [2] (Homo sapiens, DLD-1, 48 h), 14.3%; in assay [4] (Homo sapiens, NCI-N87, 48 h), 17.3%; in assay [5] (setting [8]), 46.1%. The “% inhibition” value in assay [2] was 14.34%; in assay [4], 17.31%.

For the origin of these results see patent US20160030364A1, “Therapeutic Compositions and Uses Thereof” (MANUKA HEALTH NEW ZEALAND LIMITED, priority 2013, published 2016).
